Test results: US20240252668A1, “ANTIBODY DRUG CONJUGATES AND METHODS FOR MAKING THEREOF” (Novartis AG, priority 2021, published 2024)
Read-outs that look alike come from different tables or passages of the source. Starred links: 1 amine or outer side, 2 acyl side, 3 side chain; linkers in the order of their positions; H or OH if unused. Positions of bridges follow the written chain, without caps; N, C: chain ends. Non-standard residues stand in square brackets, D forms with d. Residues, ends and D or L forms follow the SMILES beside them. ξ: configuration not given here. *: point of attachment. Leu(3R-OH,Nα-propionyl) = CCC(=O)N[C@H](C(=O)*)[C@H](O)C(C)C; X1 = CC(C)[C@@H](O[*:3])[C@H](N[*:1])C(=O)[*:2]; X3 = CC(C)C(O[*:3])C(N[*:1])C(=O)[*:2]; ξLeu(3ξ-OH) = CC(C)C(O)C(N)C(=O)O; NMeT = CN[CH](C(=O)O)[CH](C)O; dPhLac = O=C(O)[C@H](O)Cc1ccccc1; PhLac = O=C(O)[CH](O)Cc1ccccc1; NMeA = CN[CH](C)C(=O)O; NMeDha = C=C(NC)C(=O)O

Legend:
[1] = EPSA determination by supercritical fluid chromatography; assay type: physicochemical; conditions: for EPSA: modified EPSA method, SFC; for change in EPSA (in words): versus macrocyclic chromodepsins with N-acyl-Hle side chain
Procedure: […] by supercritical fluid chromatography: Compounds (A1) and 2-15 were tested by supercritical fluid chromatography (SFC) to determine their ESAPSA values. Samples were analyzed using a Chirex 3014 column ([…], 3×100 mm column, 100 Å pore size; Phenomenex. The starting conditions were 5% methanol containing 20 mM ammonium formate and 95% scCO2. The gradient was increased linearly to 60% methanol containing 20 mM ammonium formate in 4.5 min.

[2] = tested on: 92.1 and MP41 cell lines (GNAQ/GNA11 mutant uveal melanoma); assay: Cell proliferation assays, potency ranking over both uveal melanoma lines; assay type: cell-based; conditions: for loss of potency compared to compound (A1) (growth inhibition): 92.1 and MP41 cell lines
Source text: The selective antiproliferative profile of the chromodepsins against GNAQ/GNA11 mutant cell lines is confirmed by the lack of activity against the A375 and SK MEL 30 cell lines that are independent from GNAQ/GNA11 signaling. The potency ranking using the 92.1 and MP41 cell lines is in good agreement with the previously SAR studies. […] These findings are in line with a recent report from Voss et al., highlighting the importance of the “lipophilic anchors” of compound (A1) at the residues varied in compounds 2 and 3, in context of binding kinetics and prolonged residence time on the target proteins. The retained potency of compound 4 indicates a promising exit vector for potential synthetic or biosynthetic modifications of the scaffold. […] The linearized depsipeptides compounds 5-7 lack any antiproliferative activity. In this experimental setup, the cellular permeability of the compounds was a crucial factor contributing to the observed antiproliferative potency. Therefore, all compounds were characterized in a low efflux MCDK assay and determined their exposed polar surface areas (EPSA) in order to assess their passive cellular permeabilities. All macrocyclic chromodepsins that feature the N acyl Hle side chain show similar results concerning their % fraction absorbed (% FA; average ˜60% FA+20%) and EPSA values.
(§1) Cell Proliferation Assays with Chromodepsins (compounds (A1) and 2-15): Cell line descriptions: 92.1—uveal melanoma cell line, derived from primary tumor, harboring heterozygous GNAQ Q209L mutation. Purchased from Sigma Aldrich. MP41 (CRL-3297) -uveal melanoma cell line, derived from primary tumor, harboring heterozygous GNA11 Q209L mutation. Purchased from ATCC. A375—skin melanoma cell line, harboring homozygous BRAF V600E mutation. Origin: Cancer Cell Line Encyclopedia (CCLE). SK-MEL-30—skin melanoma cell line, harboring heterozygous NRAS Q61K mutation. Origin: CCLE.
(§2) Cells were cultured in 96-well plates in a total volume of 100 μL at 37° C., 5% CO2 and 95% relative humidity. All cell lines were cultured in RPMI Medium (RPMI 1640 w/o L-glutamine, Bioconcept ref. 1-41F01-I) except A375, DMEM medium (DMEM high glucose (4.5 g/L), Bioconcept, ref. 1-26F01-I), and supplemented with 10% FCS (Bioconcept, ref. 2-01F30-I). Two to three thousand cells were seeded in 96-well plates per well the night before they were treated with compounds (concentration range: from 260 nM to 0.036 nM with ⅓ dilution steps; for 7 the concentration range was increased from 10000 nM to 1.52 nM with ⅓ dilution steps). Cell viability was measured by addition of 10 ul of resazurin per well after 96 hours of treatment. Results were analyzed and plotted using GraphPad Prism 9.0.1.

[3] = tested on: Gαq proteins; conditions: as has been reported; dynamic mass redistribution; cited from earlier work
[4] = tested on: SK-MEL-30 skin melanoma cell line (heterozygous NRAS Q61K); assay: Cell proliferation assay (resazurin cell viability), SK-MEL-30 cell line; assay type: cell-based
Source text: as §1, §2

[5] = tested on: A375 skin melanoma cell line (homozygous BRAF V600E); assay: Cell proliferation assay (resazurin cell viability), A375 cell line; assay type: cell-based
Source text: as §1, §2

[6] = tested on: MDCK-LE monolayers; assay: Cell-based transwell assay with MDCK-low efflux monolayers (passive permeability); assay type: in vitro ADME; conditions: for % Fraction absorbed / % Recovery / Papp A − B: MDCK-LE monolayers; for reduction in % FA: versus macrocyclic chromodepsins with N-acyl-Hle side chain
Procedure: Cell-based transwell assays with MDCK-low efflux monolayers: Compounds (A1) and 2-15 were tested in MDCK cell sub-clones with low effluxt ransporter activity (MDCK-LE) in order to determine their passive permeability. The incubations were performed at a contract research organization as described previously.

[7] = tested on: MP41 uveal melanoma cell line (heterozygous GNA11 Q209L); assay: Cell proliferation assay (resazurin cell viability), MP41 cell line; assay type: cell-based
Source text: as §1, §2

[8] = tested on: 92.1 uveal melanoma cell line (heterozygous GNAQ Q209L); assay: Cell proliferation assay (resazurin cell viability), 92.1 cell line; assay type: cell-based
Source text: as §1, §2

[9] = SK-MEL-30 (GNAQ/11 wild type), 96 hours of treatment, read-out: GI50 by cell line, SK-MEL-30
[10] = SK-MEL-30 cell line, average of Rep. 1 and 2, read-out: GI50 SK-MEL-30 Average
[11] = SK-MEL-30 cell line, replicate 1, read-out: GI50 SK-MEL-30 Rep. 1
[12] = SK-MEL-30 cell line, replicate 2, read-out: GI50 SK-MEL-30 Rep. 2
[13] = A375 (GNAQ/11 wild type), 96 hours of treatment, read-out: GI50 by cell line, A375
[14] = A375 cell line, average of Rep. 1 and 2, read-out: GI50 A375 Average
[15] = A375 cell line, replicate 1, read-out: GI50 A375 Rep. 1
[16] = A375 cell line, replicate 2, read-out: GI50 A375 Rep. 2
[17] = MP41 (GNA11 Q209L), 96 hours of treatment, read-out: GI50 by cell line, MP41
[18] = MP41 cell line, average of Rep. 1 and 2, read-out: GI50 MP41 Average
[19] = MP41 cell line, replicate 1, read-out: GI50 MP41 Rep. 1
[20] = MP41 cell line, replicate 2, read-out: GI50 MP41 Rep. 2
[21] = 92.1 (GNAQ Q209L), 96 hours of treatment, read-out: GI50 by cell line, 92.1
[22] = 92.1 cell line, average of Rep. 1 and 2, read-out: GI50 92.1 Average
[23] = 92.1 cell line, replicate 1, read-out: GI50 92.1 Rep. 1
[24] = 92.1 cell line, replicate 2, read-out: GI50 92.1 Rep. 2

| SMILES | EPSA [1] [A^2] | GI50 [4, 9] [nM] | GI50 [4, 10] [nM] | GI50 [4, 11] [nM] | GI50 [4, 12] [nM] | GI50 [5, 13] [nM] | GI50 [5, 14] [nM] | GI50 [5, 15] [nM] | GI50 [5, 16] [nM] | % Fraction absorbed [6] [%] | % Recovery [6] [%] | Papp A − B [6] [×10⁻⁶ cm/s] | GI50 [7, 17] [nM] | GI50 [7, 18] [nM] | GI50 [7, 19] [nM] | GI50 [7, 20] [nM] | GI50 [8, 21] [nM] | GI50 [8, 22] [nM] | GI50 [8, 23] [nM] | GI50 [8, 24] [nM] | also measured |
| --- | --- | --- | --- | --- | --- | --- | --- | --- | --- | --- | --- | --- | --- | --- | --- | --- | --- | --- | --- | --- | --- |
| C=C1C(=O)NC(C)C(=O)N(C)C(C)C(=O)NC(C(O)C(C)C)C(=O)N(C)C(C(C)OC)C(=O)OC(C(C)C)C(NC(C)=O)C(=O)OC(Cc2ccccc2)C(=O)N1C (stereo not drawn) [Compound 12] (Ac-[X3][PhLac][NMeDha]A[NMeA][ξLeu(3ξ-OH)][NMeT](Me); ester 1-C; configuration not given here) | 106 | > 10000 | > 10000 | > 10000 | > 10000 | > 10000 | > 10000 | > 10000 | > 10000 | 9.9 | 83 | 0.55 | 1180 | 1180 | 994 | 1350 | 1740 | 1740 | 1130 | 2350 | change in EPSA (in words) [1]: slight changes; loss of potency compared to compound (A1) (growth inhibition) [2]: > 3.000 fold; fold change compared to compound (A1), inhibition of Gαq proteins [3]: 16 fold; reduction in % FA [6]: ~5 fold |
| C=C1C(=O)N[C@@H](C)C(=O)N(C)[C@@H](C)C(=O)N[C@@H]([C@H](OC(=O)[C@@H](NC(=O)CC)[C@H](O)C(C)C)C(C)C)C(=O)N(C)[C@@H]([C@@H](C)OC)C(=O)O[C@H](C)[C@H](NC(C)=O)C(=O)O[C@H](Cc2ccccc2)C(=O)N1C [Compound 14] (Ac-T[dPhLac][NMeDha]A[NMeA][X1](Leu(3R-OH,Nα-propionyl))[NMeT](Me); ester 1-C) | 95 | > 260 | > 260 | > 260 | > 260 | > 260 | > 260 | > 260 | > 260 | 53.3 | 85 | 3.32 | 2.2 | 2.2 | 1.5 | 2.81 | 5.2 | 5.2 | 2.95 | 7.53 | loss of potency compared to compound (A1) (growth inhibition) [2]: ~10 fold |
| C=C1C(=O)NC(C)C(=O)N(C)C(C)C(=O)NC(C(O)C(C)C)C(=O)N(C)C(C(C)OC)C(=O)OC(C)C(NC(C)=O)C(=O)OC(Cc2ccccc2)C(=O)N1C (stereo not drawn) [Compound 15] (Ac-T[PhLac][NMeDha]A[NMeA][ξLeu(3ξ-OH)][NMeT](Me); ester 1-C; configuration not given here) | 109 | > 10000 | > 10000 | > 10000 | > 10000 | > 10000 | > 10000 | > 10000 | > 10000 | 15 | 90 | 0.79 | > 10000 | > 10000 | > 10000 | > 10000 | > 10000 | > 10000 | > 10000 | > 10000 | change in EPSA (in words) [1]: slight changes; antiproliferative activity (in words) [2]: some antiproliferative activity observed at the highest doses tested; GI50 ([2]; cell line not specified): > 10000 nM; reduction in % FA [6]: ~5 fold |
